How the values were obtained:
Striga hermonthica seeds = settings: at 10^-8 M concentrations; cited from earlier work
[1] = tested on: corn, Dekalb hybrid 68-05; assay: Corn field trial, Hays County, Tex., not irrigated; type: in vivo
Protocol: Field trial was performed from April to July 2014 in Hays County, Tex. Dekalb hybrid 68-05 was planted at a density of 25,000 plants per acre (30″ rows with 8″ spacing). The field was top-dressed with 80 lbs/ac nitrogen. The field was not irrigated. AB01 treated plots were sprayed with a 2 gram per acre dose at the tasseling (VT) stage. Spraying was accomplished by resuspending solid AB01 in 0.5 mL of acetone, and diluting in water for a spray volume of 1 gallon per 500 square feet. Experiments were performed in triplicate The fraction of fertilized ears was measured by visual inspection of the ear silk at the R2-R3 stage. Unfertilized silks that appear yellow/green, while fertilized silks appear reddish brown. Completely unfertilized ears have silks that are completely yellow/green, fertilized ears appear brown, while ears with an incomplete degree of fertilized silks have a mixed population of silks. […] Ears were visually inspected at harvest to monitor kernel set (the number of fully formed kernels in the mature ear). […] Ears volume was measured in the field at the R3 stage to calculate ear volume. The length and circumference of each ear was measure, and volume was calculated by treating the ear as a cylinder. Approximately 100 ears from each plot were measured. […] After harvest, ears were shelled and kernels counted and weighed to quantitate the ‘thousand kernel weight’ (TKW), or average mass of kernels in the trial. AB01 treated plots yielded kernels averaging 30% higher mass than control plots. Ears from control and treated plots were harvested, shelled, and moisture tested to quantitate dry mass. Control plots averaged 120 bushels per acre, while AB01 treated plots averaged 143 bushels per acre, a 19% increase. Grain yield is calculated at 15% moisture, a standard measure of harvest output.

Wheat = assay: Drought tolerance in greenhouse wheat; type: in vivo; settings: 1 mg in 100 mL water; irrigation stopped; 7 days post treatment
Protocol: Wheat was grown in greenhouse conditions from seed for 6 weeks with adequate irrigation. Plants were treated with 1 mg of AB01 resuspended in acetone and diluted in 100 mL water, or mock treated as a control. Irrigation was stopped and plants monitored for symptoms of drought stress.

[2] = tested on: grain crop in Striga infested plots; assay: Field trial Siaya County, Kenya: grain yield; type: in vivo; settings: 1 gram per acre sprayed 1 week prior to planting
Protocol: We have field trials underway outside of Kisumu, Kenya to test the efficacy of this treatment on maize yields in Striga infested fields.
(§1) Field trial was performed from August 2013 to January 2014 in Siaya County, Kenya. AB01 treated plots were sprayed with a 1 gram per acre dose 1 week prior to planting. Treatment was accomplished by resuspending solid AB01 in 1 mL of acetone, and diluting in 4000 L of water. 3 replicate treated and untreated plots (100 m2 each) were performed. […] (C) The biomass of Striga from each plot was collected and measured after harvest.

Seeds of O. cumana = assay: Germination triggering of parasitic weed seeds; type: in vivo; settings: AB01 compared with 5-deoxystrigol; 48 hours post-treatment, triplicate
Protocol: Seeds of O. cumana were primed by incubation on glass fiber filters in darkness at room temperature for 3 days. Specified concentrations of AB01 or 5-dS were applied and seeds were monitored at 48 hours post-treatment. Germination was evident by appearance of haustoria. Experiments were performed in triplicate.

MAX1 A. thaliana mutants = assay: Complementation of Arabidopsis mutant deficient in strigolactone biosynthesis; type: in vivo, Arabidopsis thaliana; settings: 1 uM as an irrigation supplement vs mock treatment
Protocol: To further validate the bioactivity of AB01 we tested whether the compound could complement mutants of the model plant Arabidopsis thaliana that are deficient in strigolactone biosynthesis. […] We grew MAX1 A. thaliana under standard conditions and added 1 uM AB01 as an irrigation supplement, or a mock treatment. […] Thus, the synthetic AB01 is sufficiently similar to strigolactone to both to trigger Striga germination as well as substitute for the natural compound in a model plant.

Striga = assay: Field trial Siaya County, Kenya: reduction of Striga; type: in vivo; settings: 1 gram per acre sprayed 1 week prior to planting
Protocol: as §1

Alfalfa seedlings [3] = assay: Drought tolerance in alfalfa seedlings; type: in vivo; settings: 1 mg/mL; irrigation stopped; approximately 7 days post-treatment
Protocol: Alfalfa was grown from seeds for 14 days. Seedlings were treated with 1 mg/mL AB01 or mock treated. Irrigation was stopped after treatment and seedlings were monitored for symptoms of water limitation stress.

[4] = tested on: Dekalb 67-86 RR corn seedlings; assay: Acute water stress in corn seedlings (leaf rolling score); type: in vivo; settings: 40 mL of 0.1 mM or 1.0 mM; 6th day without irrigation; greenhouse
Protocol: Corn seedlings were scored as unstressed, moderately water stressed and severely water stressed as measured by visual inspection of leaf rolling, a response of corn to water stress. Dekalb 67-86 RR corn seeds were planted and then irrigated through 7 days after emergence in a greenhouse setting. Seedlings were then treated with 40 mL of water, 0.1 mM AB01 or 1.0 mM AB01 and irrigation ceased. On the 6th day without irrigation, seedlings were scored for water stress. Seedlings with open leaves were scored as unstressed; seedlings with partial leaf rolling were scored as moderately stressed; seedlings with completely rolled leaves were scored as severely stressed.

Tomato seedlings = assay: Salinity tolerance in tomato seedlings; type: in vivo; settings: 10 mg/mL; 250 mL water with 29.2 g/L NaCl 24 hours after treatment; 6 hours after salt irrigation
Protocol: Tomato seedlings were treated with 10 mg/mL AB01 or mock treated. 24 hours after treatment, they were irrigated with 250 mL water containing 29.2 g/L salt (NaCl).

Alfalfa seedlings [5] = assay: Salinity tolerance in alfalfa seedlings; type: in vivo; settings: 1 mg/mL; irrigated every 48 hours with 100 mL water containing 35 g/L NaCl; after 5 days
Protocol: Alfalfa was grown from seeds for 14 days. Seedlings were treated with 1 mg/mL AB01 or mock treated. After treatment, plants were irrigated with 100 mL water containing 35 g/L dissolved salt (NaCl). Irrigation was performed every 48 hours and plants monitored for symptoms of salinity stress.

Seeds of Striga asiatica = assay: Triggering Striga seed germination; type: in vivo; settings: for bioactivity in Striga germination assay: FIG. 1
Protocol: (B) Bioactivity of synthetic SL. Seeds of Striga asiatica were exposed to SL (right) or a mock treatment (left). […] (C) Synthetic biological pathway for the production of SL in yeast, consisting of enzymes of plant and microbial origin. We tested the ability of AB01 to trigger the germination of Striga seeds. Seeds of Striga asiatica were conditioned by incubation in the dark at 30 degrees for 7 days, and dilutions of the AB01 material in water were applied. We observed that concentrations of 1 nanogram per liter and greater were able to trigger germination of approximately 30% of the seeds, which is similar to published efficiencies and activity for plant-derived strigolactone (FIG. 1A-B).

SMILES: CC1=CC(OC=C2C(=O)OC3C4=C(CC23)C(O)CCC4(C)C)OC1=O (stereo not drawn) [ent-strigol]
- activity in germination studies of Striga hermonthica seeds (Striga hermonthica seeds): 22%

SMILES: CC1=CC(O/C=C2\C(=O)O[C@]3(C)CCC4C(C)(C)CCC[C@]4(C)[C@@H]23)OC1=O (stereo partly shown) [AB01]
- increase of harvest yield over control plots ([1]; 2 gram per acre spray at VT): 19%
- ear volume ([1]; 2 gram per acre spray at VT, R3 stage, approximately 100 ears per plot, vs mock treated): significantly higher volumes
- kernel set at harvest ([1]; 2 gram per acre spray at VT, vs mock treated): more complete kernel set and few signs of kernel abortion
- fraction of fertilized ears (visual inspection of ear silk) ([1]; 2 gram per acre spray at tasseling (VT), R2-R3 stage, vs mock treated control): decreased the fraction of unfertilized ears while increasing the fraction of fertilized ears
- symptoms of drought stress (wilting) (Wheat): appeared vigorous
- increase of grain yield compared to untreated plots [2]: 25%
- germination triggering efficiency (appearance of haustoria) (Seeds of O. cumana): Significant differences in germination triggering efficiency
- effect on phenotype of strigolactone-deficient mutant (MAX1 A. thaliana mutants): visible impact on the phenotype of the mutant
- count of emergent Striga per plot (Striga): few parasites
- Striga emergence and Striga-related stress during season (Striga; 3 replicate plots of 100 m2): few signs of Striga-related stress and parasite emergence
- appearance of seedlings under water limitation (Alfalfa seedlings [3]): appeared robust
- fraction of unstressed / severely water stressed seedlings [4]: decreased the fraction of severely stressed seedlings while increasing the fraction of unstressed seedlings in a dose-dependent manner
- symptoms of salinity shock (wilting) (Tomato seedlings): appeared unstressed
- vigor under salinity stress (Alfalfa seedlings [5]): significantly higher vigor
- bioactivity in Striga germination assay (Seeds of Striga asiatica): graded dose-response behavior
- bioactivity in Striga germination assay (Seeds of Striga asiatica; listed as Synthetic SL): potent bioactivity
- bioactivity in Striga germination assay (Seeds of Striga asiatica; listed as synthetic SL): displayed bioactivity
- bioactivity in Striga germination assay (Seeds of Striga asiatica; listed as synthetically produced SL): effective at germinating seeds of Striga asiatica
- concentrations able to trigger germination (Seeds of Striga asiatica; Striga asiatica seeds conditioned 7 days, dilutions in water): ≥ 1 nanogram per liter
- seeds triggered to germinate (Seeds of Striga asiatica; Striga asiatica seeds conditioned in the dark at 30 degrees for 7 days, dilutions in water, 1 nanogram per liter and greater): approximately 30%

SMILES: CC1=C[C@H](O/C=C2/C(=O)O[C@@H]3C4=C(CCCC4(C)C)C[C@H]23)OC1=O [Formula 5-dS, 5-deoxystrigol, reference compound]
- germination triggering efficiency (appearance of haustoria) (Seeds of O. cumana): Significant differences in germination triggering efficiency

Source: patent US10577358B2, “Strigolactone formulations and uses thereof” (SOUND AGRICULTURE COMPANY, priority 2013, dated 2020)
